This note sets out measurements from patent EP4790046A1, “NOVEL COMPOUND DERIVED FROM MYRISTICA FRAGRANS, AND ANTICANCER COMPOSITION COMPRISING SAME” (Korea Institute of Science and Technology, priority 2023, dated 2025).

Read-outs that look alike come from different tables or passages of the source.

Data set [1] relates to MiaPaCa-2. Nature of the data set: alamarBlue cell viability (survival rate), MiaPaCa-2. It is filed as cell-based. The conditions noted are these: MiaPaCa-2 (pancreatic cancer), compound 10 µM, 48 hours; for viability at 10 µM: Homo sapiens, MIA PaCa-2, read-out: Cancer cell line survival rate (%). An excerpt:
(§1) A p-value < 0.05 was considered statistically significant.

In data set [2] the test system is 23132/87. Put plainly: alamarBlue cell viability (survival rate, IC50), 23132/87. The format is cell-based. The conditions noted are these: 23132/87 (gastric cancer); for viability at 10 µM / Cancer cell line survival rate (%): compound 10 µM, 48 hours; for viability at 10 µM: read-out: Cancer cell line survival rate (%); for IC50: 2.5-40 µM, positive control = doxorubicin.
Source text: as §1
A general note: Resazurin is reduced to fluorescent resorufin, in cell work by metabolically active cells.

In data set [3] the test system is SW48. Put plainly: alamarBlue cell viability (survival rate, IC50), SW48. The format is cell-based. The conditions noted are these: SW48 (colorectal cancer); for viability at 10 µM / IC50: Homo sapiens; for viability at 10 µM / Cancer cell line survival rate (%): compound 10 µM, 48 hours; for viability at 10 µM: read-out: Cancer cell line survival rate (%); for IC50: 2.5-40 µM, positive control = oxaliplatin.
Source text: as §1

The subject of data set [4] is SNU466. Nature of the data set: alamarBlue cell viability (survival rate), SNU466. The format is cell-based. The settings on record: SNU466 (glioblastoma), compound 10 µM, 48 hours; for viability at 10 µM: read-out: Cancer cell line survival rate (%).
Source text: as §1

Data set [5] concerns HepG2. Nature of the data set: alamarBlue cell viability (survival rate), HepG2. It is filed as cell-based. The conditions noted are these: HepG2 (liver cancer), compound 10 µM, 48 hours; for viability at 10 µM: Homo sapiens, read-out: Cancer cell line survival rate (%).
Source text: as §1

Data set [6] deals with SNU-81. Nature of the data set: alamarBlue cell viability (survival rate, IC50), SNU-81. The settings on record: for viability at 10 µM / Cancer cell line survival rate (%): SNU-81 (colorectal cancer), compound 10 µM, 48 hours; for viability at 10 µM: read-out: Cancer cell line survival rate (%). The format is cell-based.
Source text: as §1

Data set [7] has as its system SNU-719. Put plainly: alamarBlue cell viability (survival rate, IC50), SNU-719. The settings on record: for viability at 10 µM / Cancer cell line survival rate (%): SNU-719 (gastric cancer), compound 10 µM, 48 hours; for viability at 10 µM: read-out: Cancer cell line survival rate (%); for IC50: SNU719 (gastric cancer), 2.5-40 µM, positive control = doxorubicin. It is filed as cell-based.
Source text: as §1

Data set [8] deals with SNU-C5. Nature of the data set: alamarBlue cell viability (survival rate, IC50), SNU-C5. The conditions noted are these: for viability at 10 µM / Cancer cell line survival rate (%): SNU-C5 (colorectal cancer), compound 10 µM, 48 hours; for viability at 10 µM: read-out: Cancer cell line survival rate (%). It is filed as cell-based.
Source text: as §1

The test system of data set [9] is AGS. Nature of the data set: alamarBlue cell viability (survival rate, IC50), AGS. It is filed as cell-based. The settings on record: AGS (gastric cancer); for viability at 10 µM / IC50: Homo sapiens; for viability at 10 µM / Cancer cell line survival rate (%): compound 10 µM, 48 hours; for viability at 10 µM: read-out: Cancer cell line survival rate (%); for IC50: 2.5-40 µM, positive control = doxorubicin.
Source text: as §1

The subject of data set [10] is SNU201. Put plainly: alamarBlue cell viability (survival rate), SNU201. The format is cell-based. The conditions noted are these: SNU201 (glioblastoma), compound 10 µM, 48 hours; for viability at 10 µM: read-out: Cancer cell line survival rate (%).
Source text: as §1

For data set [11], the system named is various cancer cell lines. Put plainly: alamarBlue cell viability, statements across the cell line panel. The settings on record: for anticancer activity: various cancer cell lines.
Procedure: AGS, SW48, HepG2, and MiaPaCa-2 was purchased from ATCC (American Type Culture Collection, USA), SNU cell lines from the Korean Cell Line Bank (KCLB, Korea), and 23132/87 from the Leibniz Institute DSMZ - German Collection of Microorganisms and Cell Cultures GmbH (DSMZ, Germany). All cell lines were cultured in RPMI-1640 medium (HyClone, USA) supplemented with 10% FBS (Gibco, USA) and 1% penicillin-streptomycin (HyClone, USA) under conditions of 5% CO2, 37°C.
Cells were seeded at a density of 5 × 10^3cells/well in a 96-well plate for 24 hours, then treated with the compound at an appropriate concentration (10 µM) for 48 hours. After treatment, alamarBlue reagent was added at a volume ratio of 1/10 of the treatment volume and incubated for 4 hours in a 37°C cell incubator (protected from direct light). Cell viability was then determined by measuring absorbance values at 570 nm and 600 nm using a microplate reader. The anticancer effects of candidate compounds were evaluated by assessing the cell viability (%) of cells treated at specific concentrations and the half-maximal inhibitory concentration (IC50) of each natural product. Doxorubicin and oxaliplatin were used as positive controls for gastric and colorectal cancer, respectively.
Statistical analysis was performed using R software (version 4.2.2) (R Core Team). Differences between groups were assessed using student's t-test or 1-way ANOVA followed by post-hoc Tukey HSD test. A p-value < 0.05 was considered statistically significant.
Further, to measure the IC50 values against six cancer cell lines.
Setting [12] is: SNU81 (colorectal cancer), 2.5-40 µM, positive control = oxaliplatin, read-out: IC50.
The mark [13] stands for this setting: SNUC5 (colorectal cancer), 2.5-40 µM, positive control = oxaliplatin, read-out: IC50.

In the case of `C=CCc1ccc(O[C@H](C)[C@H](c2ccc(O)c(OC)c2)c2ccc(O)c(C(=O)CCCCCCCCc3ccc(O)c(O)c3)c2O)c(OC)c1` [Compound 5, Myricone E], the viability at 10 µM in [1] came to 1.64%; in [2], 52.1%; in data set [3], 10.2%; in [4] it was 0.58%; in data set [5] it was 2.34%; in data set [6], 126%. In addition, the viability at 10 µM in data set [7] amounted to 45%; in data set [8] it was 37.6%; in data set [9], 42.1%; in data set [10], 0.61%.
Take `COc1cc([C@H]2Oc3c(OC)cc(/C=C/Cc4ccc(O)c(C(=O)CCCCCCCCc5ccc(O)c(O)c5)c4O)cc3[C@@H]2C)ccc1O` [Compound 19, Myricone X]: the viability at 10 µM is 56.9% in data set [1]; 89.3% in data set [2]; 69.7% in [3]; 80.9% in [4]; 52.4% in [5]; 102% in [6]. The viability at 10 µM in data set [7] came out at 108%; in [8], 69.6%; in data set [9], 84.5%; in data set [10], 107%.
As a reminder, the IC50 is the concentration that gives 50% inhibition. For `C=CCc1cc(OC)c(O[C@H](C)[C@H](c2ccc(O)c(OC)c2)c2cc(O)c(O)cc2CCCCCCCCC(=O)c2c(O)cccc2O)c(OC)c1` [Compound 6, Myricone F], the viability at 10 µM came to 2.16% in [1]; 1.46% in [2]; 0.82% in data set [3]; 1.96% in data set [4]; 1.32% in data set [5]; 55.8% in data set [6]. The viability at 10 µM turned out to be 1.36% in [7], 3.53% in [8], 0.51% in data set [9] and 1.4% in data set [10]. In addition, the IC50 worked out at 2.39 µM in data set [2]; 3.09 µM in [3]; 10.3 µM in [6] (setting [12]); 2.58 µM in [7]; 4.04 µM in [8] (setting [13]); 3.35 µM in data set [9]. Further, the cytotoxic effects result in data set [11] (gastric cancer cell lines and colorectal cancer cell lines, 10 µM, 48 hours) is listed as “excellent cytotoxic effects”. Further, the anticancer activity entry in data set [11] is recorded as “high anticancer activity”.
For `COc1cc(CC(C)C(C)C(c2ccc(O)c(OC)c2)c2ccc(O)c(C(=O)CCCCCCCCc3ccc(O)c(O)c3)c2O)ccc1O` (stereo not shown) [Compound 15, Myricone P], the viability at 10 µM came out at 4.32% in data set [1]; 1.45% in data set [2]; 3.93% in [3]; 0.99% in data set [4]; 3.18% in [5]; 6.63% in data set [6]. Moreover, the viability at 10 µM in data set [7] came to 2.14%; in data set [8], 2.62%; in data set [9], 8.49%; in [10] it was 31.4%. For the same compound, the anticancer activity result in data set [11] was “high anticancer activity”.
On to `C=CCc1cc(OC)c(O[C@H](C)[C@H](c2ccc(O)c(OC)c2)c2ccc(O)c(C(=O)CCCCCCCCc3ccc(O)c(O)c3)c2O)c(OC)c1` [Compound 1, Myricone A or Myrifragranone B, reference compound], for which the “Cancer cell line survival rate (%)” value in data set [1] amounted to 3.15%; in data set [2] it was 4.71%; in data set [3], 1.75%; in data set [4], 1.7%; in [5] it was 2.07%; in data set [6], 94.79%. In addition, the “Cancer cell line survival rate (%)” value is recorded as 3.95% in data set [7], 8.73% in [8], 1.13% in data set [9] and 2.07% in data set [10]. Moreover, the IC50 in data set [2] turned out to be 4.09 µM; in [3], 4.3 µM; in data set [6] (setting [12]) it was 14.6 µM; in data set [7], 3.99 µM; in data set [8] (setting [13]), 6.32 µM; in data set [9], 4.07 µM.
On to `COc1cc(C(c2ccc(O)c(C(=O)CCCCCCCCc3ccc(O)c(O)c3)c2O)C(C)C(C)Cc2ccc3c(c2)OCO3)ccc1O` (stereo not shown) [Compound 14, Myricone O], for which the viability at 10 µM is 87.8% in [1]; 78.2% in data set [2]; 31.1% in data set [3]; 56.1% in data set [4]; 67% in [5]; 104% in data set [6]. For the same compound, the viability at 10 µM came out at 71.6% in data set [7], 18.8% in [8], 81.4% in data set [9] and 101% in [10]. Besides, in [11], the anticancer activity entry is listed as “high anticancer activity”.
As for `O=C(CCCCCCCCc1cc(O)c(O)cc1-c1ccc(O)c(C(=O)CCCCCCCCc2ccc(O)c(O)c2)c1O)c1c(O)cccc1O` [Compound 26, Giganteones A, reference compound], the IC50 came to 4.08 µM in [2]; 2.77 µM in data set [3]; 8.94 µM in data set [6] (setting [12]); 4.6 µM in data set [7]; 3.72 µM in data set [8] (setting [13]); 1.71 µM in data set [9]. In addition, in data set [11] (six cancer cell lines, 2.5-40 µM), the “anticancer activity (comparison of IC50 values among compounds)” value was “overall superior activity to Myrifragranone B and Malabaricone C”.
As to `O=C1[O][Pt]2([NH][C@@H]3CCCC[C@H]3[NH]2)[O]C1=O` [oxaliplatin, reference compound], the IC50 was determined as 41.5 µM in [6] (SNU81 cells, compound 2.5-40 µM, read-out: IC50 values) and 12.6 µM in data set [8] (SNUC5 cells, compound 2.5-40 µM, read-out: IC50 values).
`COc1cc([C@H]2Oc3c(OC)cc(/C=C/Cc4c(CCCCCCCCC(=O)c5c(O)cccc5O)ccc(O)c4O)cc3[C@@H]2C)ccc1O` [Compound 18, Myricone T]: the viability at 10 µM turned out to be 74.8% in data set [1]; 87.1% in data set [2]; 83.5% in data set [3]; 86.2% in [4]; 89% in data set [5]; 102% in data set [6]. The viability at 10 µM in [7] is 104%; in data set [8] it was 78%; in data set [9], 91.9%; in [10], 104%.
Turning to `C=CCc1cc(OC)c(O[C@H](C)[C@@H](c2ccc(O)c(OC)c2)c2ccc(O)c(C(=O)CCCCCCCCc3ccc(O)c(O)c3)c2O)c(OC)c1` [Compound 2, Myricone B], the viability at 10 µM in [1] stood at 3.67%; in data set [2] it was 7.44%; in data set [3], 7.98%; in data set [4], 2.29%; in data set [5], 1.47%; in data set [6] it was 103%. Besides, the viability at 10 µM in [7] was determined as 4.55%; in data set [8], 22.1%; in data set [9], 2.45%; in [10], 1.43%. For the same compound, the IC50 in data set [2] amounted to 4.25 µM; in data set [3], 6.18 µM; in data set [6] (setting [12]), 16.6 µM; in data set [7] it was 4.7 µM; in data set [8] (setting [13]) it was 6.85 µM; in [9] it was 4.59 µM.
Regarding `C/C=C/c1ccc(O[C@H](C)[C@H](c2ccc(O)c(OC)c2)c2ccc(O)c(C(=O)CCCCCCCCc3ccc(O)c(O)c3)c2O)c(OC)c1` (relative stereo) [Compound 8, Myrifragranone A], the “Cancer cell line survival rate (%)” value turned out to be 74.57% in [1]; 3.92% in data set [2]; 2.04% in [3]; 93.39% in data set [4]; 95.41% in [5]; 10.02% in data set [6]. The “Cancer cell line survival rate (%)” value came out at 2.27% in [7], 4.41% in [8], 2.19% in data set [9] and 108.12% in data set [10].
